From patent US11208387B2, “Macrocyclic broad spectrum antibiotics” (Genentech, Inc., priority 2019, dated 2021)
Converted amounts (≈) assume the structure as drawn. Where two headings read alike, the source gives them in different places.

Legend:
[1] = tested on: Klebsiella pneumoniae ATCC 700603; test: Serum MIC, broth micro-dilution; assay type: cell-based; details: Klebsiella pneumoniae, read-out: K pneumoniae 700603 Serum MIC
In short: (§1)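 MIC read after 22 h at 35° C by CLSI broth micro-dilution, with medium containing 50% v/v mouse serum in cation-adjusted Mueller Hinton II broth. Ten 2-fold compound concentrations were tested, starting at 64, 4, 0.5 or 0.13 μg/mL.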

[2] = tested on: Escherichia coli strain ATCC 25922; test: Serum MIC, broth micro-dilution; assay type: cell-based; details: Escherichia coli, read-out: E. coli 25922 Serum MIC
In short: as §1

[3] = tested on: Pseudomonas aeruginosa PA01; test: Serum MIC, broth micro-dilution; assay type: cell-based; details: Pseudomonas aeruginosa, read-out: P. aeruginosa 01 Serum MIC
In short: as §1

[4] = tested on: Acinetobacter baumannii ATCC 17978; test: Serum MIC, broth micro-dilution; assay type: cell-based; details: Acinetobacter baumannii
In short: as §1

[5] = tested on: isolated liver mitochondria; test: Mitochondrial oxygen consumption rate (OCR) assay; assay type: biochemical, Sprague-Dawley rats; details: isolated rat liver mitochondria, state 3 (S3) respiration, glutamate/malate; Table 3
From the text: Male Sprague-Dawley rats (8-10 weeks of age) were euthanized with an overdose of carbon dioxide. The liver was rapidly excised and placed in ice-cold phosphate-buffered saline (PBS) before isolation process. Mitochondria were isolated using the MitoCheck® Mitochondrial Isolation Kit (Cayman Chemical #701010, Ann Arbor, Mich.) according to manufacturer's instructions. In brief, approximately 10-14 grams of liver tissues were finely minced using a pair of scissors, and washed repeatedly with ice-cold PBS, followed by Mito Isolation Buffer. The minced tissues were homogenized with 30 ml Mito Homogenization Buffer in 40 ml dounce homogenizer and a smooth glass grinder. The homogenate was split into two clean 30 ml polycarbonate tubes and centrifuged at 1,000×g, 4° C., for 3 minutes. The supernatant was subjected to further centrifugation at 10,000×g, 4° C., for 10 minutes. The supernatant was discarded and mitochondrial pellet was suspended in Mito Isolation Buffer using a glass stirring rod and stored on ice until use. Protein concentration of mitochondria was determined using a bicinchoninic acid protein assay kit (Thermo Scientific, Waltham, Mass.).
Oxygen consumption was monitored as essentially described by Will et al., “Analysis of mitochondrial function using phosphorescent oxygen-sensitive probes,” Nature Protocols Vol. 1(6) (2006) 2563. Briefly, isolated mitochondria (50 μg mitochondrial proteins/state 3 (S3) of mitochondrial respiration for inhibitor identification, 100 μg/S2 for uncoupler identification) were incubated with compounds in 25 μl of Measurement Buffer (MB: 250 mM sucrose, 15 mM KCl, 1 mM EGTA, 5 mM MgCl2, 30 mM K2HPO4, pH 7.4) including 1% DMSO on ice for 1 hour, then mixed with 25 μl of substrate mixture including an oxygen-sensitive phosphorescent dye (MitoXpress Xtra, Agilent, Santa Clara, Calif.), glutamate (25 mM, G1626, Sigma, St. Louis, Mo.), malate (25 mM, M6413, Sigma), ADP (3.3 mM, A2754, Sigma, only for S3 of mitochondrial respiration), Fatty acid free BSA (0.1%, A0281, Sigma), and a complex II-specific inhibitor TTFA (2 μM, T27006, Sigma for the assessment of complex I-mitochondrial respiration with glutamate/malate) in a black wall/clear bottom 384-well plate. The mixtures were covered with HS mineral oil (Agilent) using the Viaflo 384-channel pipette (Integra, Hudson, N.H.). Oxygen consumption was measured for 30 min at 30° C. using a spectrofluorimeter (FLUOstar Omega, BMG Labtech, Cary, N.C.). In S3, DMSO vehicle control and antimycin A (10 μM) were used to define 0% and 100% inhibition. In S2, DMSO vehicle and FCCP (0.5-1 μM) was used to define 0% and 100% uncoupling, respectively. Area under curve typically in a range of 0-12 min (S3) or 0-24 min (S2) was used for calculations. IC50 or UC50 (uncoupling concentration), a concentration that causes 50% of inhibition or maximal (uncoupling) activation of oxygen consumption, was used to evaluate experimental quality. Data were presented as μM (per 50 μg (S3) or 100 μg (S2) mitochondrial proteins). Compounds with IC50: <100 μM (S3) and/or UC50: <200 μM (S2) were considered as high-risk on mitochondrial toxicity. Compounds with 25-50% changes in inhibition and/or uncoupling were categorized as medium-risk, since compounds with >25% changes are considered as responders.
Toxicity associated with mitochondrial dysfunction has presented a problem for promising potential antibiotics as we as other types of therapeutics. The mitochondrial oxygen consumption rate (OCR) assay is considered a reliable indicator of potential internal organ toxicity issues that may occur with powerful antibiotics. The carboxylate compounds of the invention show unexpected lower toxicity than prior art “glycine nitrile” arylomycin analogs (see, e.g., WO 2018/149419) in the mitochondrial oxygen consumption rate (OCR) assay.

[6] = ATCC17978, 22 h, read-out: A. baumanii 17978 Serum MIC
[7] = ATCC17978, 22 h, read-out: Acinetobacter baumanii 17978 Serum MIC
[8] = ATCC700603, 50% v/v mouse serum in Mueller Hinton II cation adjusted Broth, 35° C., 22 hours, Table 4
[9] = ATCC25922, 50% v/v mouse serum in Mueller Hinton II cation adjusted Broth, 35° C., 22 hours, Table 4
[10] = PA01, 50% v/v mouse serum in Mueller Hinton II cation adjusted Broth, 35° C., 22 hours, Table 4
[11] = ATCC17978, 50% v/v mouse serum in Mueller Hinton II cation adjusted Broth, 35° C., 22 hours, Table 4, read-out: A. baumanii 17978 Serum MIC
[12] = ATCC17978, 50% v/v mouse serum in Mueller Hinton II cation adjusted Broth, 35° C., 22 hours, Table 5, read-out: Acinetobacter baumanii 17978 Serum MIC

| SMILES | IC50 [5] | MIC [1, 8] | MIC [2, 9] | MIC [3, 10] | MIC [4, 11] | MIC [4, 12] | MIC ([1]; ATCC700603, 22 h) | MIC ([2]; ATCC25922, 22 h) | MIC ([3]; PA01, 22 h) | MIC [4, 6] | MIC [4, 7] |
| --- | --- | --- | --- | --- | --- | --- | --- | --- | --- | --- | --- |
| Cc1nc(-c2ccc(OC(C)C)cc2)ncc1C(=O)N[C@@H](CCN)C(=O)N(C)[C@@H]1C(=O)N[C@@H](C)C(=O)N[C@H](C(=O)O)Cc2ccc(OC[C@H](O)CN)c(c2)-c2cc1cc(OC[C@H](O)CN)c2O [Example 20, (8S,11S,14S)-18-hydroxy-11-methyl-14-[methyl-[(2S)-4-amino-2-[[2-(4-isopropoxyphenyl)-4-methyl-pyrimidine-5-carbonyl]amino]-butanoyl]amino]-10,13-dioxo-3,17-bis[(2R)-3-amino-2-hydroxy-propoxy]-9,12-diazatricyclo-[13.3.1.12,6]icosa-1(18),2(20),3,5,15(19), 16-hexaene-8-carboxylic acid] | > 250 µM |  |  |  |  |  | 0.46 µM (≈ 0.428 µg/mL) | 0.58 µM (≈ 0.539 µg/mL) | 64 µM (≈ 59.5 µg/mL) | 16 µM (≈ 14.9 µg/mL) | 16 µM (≈ 14.9 µg/mL) |
| Cc1nc(-c2ccc(C(C)(C)C)cc2)nc(C)c1C(=O)N[C@@H](CCN)C(=O)N(C)[C@@H]1C(=O)N[C@@H](C)C(=O)N[C@H](C(=O)O)Cc2ccc(OC[C@H](O)CN)c(c2)-c2cc1cc(OC[C@H](O)CN)c2O [Example 19, (8S,11S,14S)-18-hydroxy-11-methyl-14-[methyl-[(2S)-4-amino-2-[[2-(4-tert-butylphenyl)-4,6-dimethyl-pyrimidine-5-carbonyl]amino]-butanoyl]amino]-10,13-dioxo-3,17-bis[(2R)-3-amino-2-hydroxy-propoxyl]-9,12-diazatricyclo-[13.3.1.12,6]icosa-1(18),2(20),3,5,15(19), 16-hexaene-8-carboxylic acid] | > 250 µM |  |  |  |  |  | 0.25 µM (≈ 0.236 µg/mL) | 0.25 µM (≈ 0.236 µg/mL) | 8 µM (≈ 7.54 µg/mL) | 16 µM (≈ 15.1 µg/mL) | 16 µM (≈ 15.1 µg/mL) |
| Cc1nc(-c2ccc(C(C)(C)C)c(F)c2O)nc(N)c1C(=O)N[C@@H](CNS(N)(=O)=O)C(=O)N(C)[C@@H]1C(=O)N[C@@H](C)C(=O)N[C@H](C(=O)O)Cc2ccc(OC[C@H](O)CN)c(c2)-c2cc1cc(OC[C@H](O)CN)c2O [Example 67, (8S,11S,14S)-18-hydroxy-11-methyl-14-[methyl-[(2S)-2-[[4-amino-2-(4-tert-butyl-3-fluoro-2-hydroxy-phenyl)-6-methyl-pyrimidine-5-carbonyl]amino]-3-(sulfamoylamino)-propanoyl]amino]-10,13-dioxo-3,17-bis[(2R)-3-amino-2-hydroxy-propoxy]-9,12-diazatricyclo-[13.3.1.12,6]icosa-1(18),2(20),3,5,15(19), 16-hexaene-8-carboxylic acid] |  | 1 µM (≈ 1.04 µg/mL) | 0.5 µM (≈ 0.521 µg/mL) | 4 µM (≈ 4.17 µg/mL) | 16 µM (≈ 16.7 µg/mL) | 16 µM (≈ 16.7 µg/mL) |  |  |  |  |  |
| Cc1nc(-c2ccc(OC(C)C)cc2)nc(C)c1C(=O)N[C@@H](CNS(N)(=O)=O)C(=O)N(C)[C@@H]1C(=O)N[C@@H](C)C(=O)N[C@H](C(=O)O)Cc2ccc(OC[C@H](O)CN)c(c2)-c2cc1cc(OC[C@H](O)CN)c2O [Example 13, (8S,11S,14S)-18-hydroxy-11-methyl-14-[methyl-[(2S)-2-[[2-(4-isopropoxy-phenyl)-4,6-dimethyl-pyrimidine-5-carbonyl]amino]-3-(sulfamoylamino)-propanoyl]amino]-10,13-dioxo-3,17-bis[(2R)-3-amino-2-hydroxy-propoxy]-9,12-diazatricyclo-[13.3.1.12,6]icosa-1(18),2(20),3,5,15(19), 16-hexaene-8-carboxylic acid] |  |  |  |  |  |  | 1.5 µM (≈ 1.51 µg/mL) | 1.5 µM (≈ 1.51 µg/mL) | 24 µM (≈ 24.2 µg/mL) | 32 µM (≈ 32.3 µg/mL) | 32 µM (≈ 32.3 µg/mL) |

More lines, main results first:

| IC50 [5] | MIC [1, 8] | MIC [2, 9] | MIC [3, 10] | MIC [4, 11] | MIC [4, 12] | SMILES | MIC ([1]; ATCC700603, 22 h) | MIC ([2]; ATCC25922, 22 h) | MIC ([3]; PA01, 22 h) | MIC [4, 6] | MIC [4, 7] |
| --- | --- | --- | --- | --- | --- | --- | --- | --- | --- | --- | --- |
| > 250 µM | 0.17 µM (≈ 0.157 µg/mL) | 0.21 µM (≈ 0.194 µg/mL) | 43 µM (≈ 39.8 µg/mL) | 11 µM (≈ 10.2 µg/mL) | 11 µM (≈ 10.2 µg/mL) | Cc1nc(-c2ccc(C3(C)CC3)cc2)ncc1C(=O)N[C@@H](CCN)C(=O)N(C)[C@@H]1C(=O)N[C@@H](C)C(=O)N[C@H](C(=O)O)Cc2ccc(OC[C@H](O)CN)c(c2)-c2cc1cc(OC[C@H](O)CN)c2O [Example 28, (8S,11S,14S)-18-hydroxy-11-methyl-14-[methyl-[(2S)-4-amino-2-[[4-methyl-2-[4-(1-methylcyclo-propyl)phenyl]-pyrimidine-5-carbonyl]amino]-butanoyl]amino]-10,13-dioxo-3,17-bis[(2R)-3-amino-2-hydroxy-propoxy]-9,12-diazatricyclo-[13.3.1.12,6]icosa-1(18),2(20),3,5,15(19), 16-hexaene-8-carboxylic acid] |  |  |  |  |  |
| > 100 µM | 0.75 µM (≈ 0.756 µg/mL) | 0.75 µM (≈ 0.756 µg/mL) | 4 µM (≈ 4.03 µg/mL) | 8 µM (≈ 8.06 µg/mL) | 8 µM (≈ 8.06 µg/mL) | Cc1nc(-c2ccc(C(C)(C)C)cc2)nc(N)c1C(=O)N[C@@H](CNS(N)(=O)=O)C(=O)N(C)[C@@H]1C(=O)N[C@@H](C)C(=O)N[C@H](C(=O)O)Cc2ccc(OC[C@H](O)CN)c(c2)-c2cc1cc(OC[C@@H](O)CN)c2O [Example 50, (8S,11S,14S)-14-[[(2S)-2-[[4-amino-2-(4-tert-butylphenyl)-6-methyl-pyrimidine-5-carbonyl]amino]-3-(sulfamoylamino)-propanoyl]-methyl-amino]-3-[(2R)-3-amino-2-hydroxy-propoxy]-17-[(2S)-3-amino-2-hydroxy-propoxy]-18-hydroxy-11-methyl-10,13-dioxo-9,12-diazatri-cyclo[13.3.1.12,6]icosa-1(19),2(20),3,5,15,17-hexaene-8-carboxylic acid] |  |  |  |  |  |
| 22 µM | 0.16 µM (≈ 0.148 µg/mL) | 0.22 µM (≈ 0.204 µg/mL) | 16 µM (≈ 14.8 µg/mL) | 8 µM (≈ 7.42 µg/mL) | 8 µM (≈ 7.42 µg/mL) | Cc1nc(-c2ccc(C(C)(C)C)cc2)ncc1C(=O)N[C@@H](CCN)C(=O)N(C)[C@@H]1C(=O)N[C@@H](C)C(=O)N[C@H](C(=O)O)Cc2ccc(OC[C@H](O)CN)c(c2)-c2cc1cc(OC[C@H](O)CN)c2O [Example 23, (8S,11S,14S)-18-hydroxy-11-methyl-14-[methyl-[(2S)-4-amino-2-[[2-(4-tert-butylphenyl)-4-methyl-pyrimidine-5-carbonyl]amino]-butanoyl]amino]-10,13-dioxo-3,17-bis[(2R)-3-amino-2-hydroxy-propoxy]-9,12-diazatricyclo-[13.3.1.12,6]icosa-1(18),2(20),3,5,15(19), 16-hexaene-8-carboxylic acid] |  |  |  |  |  |
